# Test results as given in patent US20230082929A1, “METHODS OF GENERATING AND USING SENESCENT-INDUCED CELLS FOR TREATMENT OF CANCER AND COMPOSITIONS RELATING THERETO” (The Wistar Institute of Anatomy and Biology, priority 2020, published 2023).
# What was measured:
# STING = STING dimerization by immunoblot in IMR90 cells; type: cell-based, human; details: senescent IMR90 cells with HMGB2 knockdown
# Protocol: Cells were lysed in 1× sample buffer (2% SDS, 10% glycerol, 0.01% bromophenol blue, 62.5 mM Tris, pH 6.8, and 0.1 M DTT) and heated to 95° C. for 10 min. Protein concentrations were determined using the protein assay dye (Bio-Rad. Cat. No: #5000006) and Nanodrop. An equal amount of total protein was resolved using SDS-PAGE gels and transferred to PVDF membranes at 110 V for 2 hours at 4° C. Membranes were blocked with 5% nonfat milk in TBS containing 0.1% Tween 20 (TBS-T) for 1 hour at room temperature. Membranes were incubated overnight at 4° C. in the primary antibodies in 4% BSA/TBS+0.025% sodium azide. Membranes were washed four times in TBS-T for 5 min at room temperature, after which they were incubated with HRP-conjugated secondary antibodies (Cell Signaling Technology. Cat. No: 7076S, 7074S) for 1 hour at room temperature. After washing four times in TBS-T for 5 min at room temperature, proteins were visualized on film after incubation with SuperSignal West Pico PLUS Chemiluminescent Substrate (Thermo Fisher Scientific. Cat. No: 34580).
# TOP1cc = molecular target: T1, TOP1cc (Mus musculus, UniProt Q04750); test: Slot blot analysis of TOP1cc levels in CCF of senescent ID8-Defb29/Vegf-a cells; type: cell-based; details: HMGB2 knockdown Cisplatin-induced senescent ID8-Defb29 Vegf-a cells
# T1 construct: endogenous in cells; host or cells: UPK10 mouse ovarian cancer cells, sorted senescent and non-senescent fractions
# T1 sequence (Q04750 1-767): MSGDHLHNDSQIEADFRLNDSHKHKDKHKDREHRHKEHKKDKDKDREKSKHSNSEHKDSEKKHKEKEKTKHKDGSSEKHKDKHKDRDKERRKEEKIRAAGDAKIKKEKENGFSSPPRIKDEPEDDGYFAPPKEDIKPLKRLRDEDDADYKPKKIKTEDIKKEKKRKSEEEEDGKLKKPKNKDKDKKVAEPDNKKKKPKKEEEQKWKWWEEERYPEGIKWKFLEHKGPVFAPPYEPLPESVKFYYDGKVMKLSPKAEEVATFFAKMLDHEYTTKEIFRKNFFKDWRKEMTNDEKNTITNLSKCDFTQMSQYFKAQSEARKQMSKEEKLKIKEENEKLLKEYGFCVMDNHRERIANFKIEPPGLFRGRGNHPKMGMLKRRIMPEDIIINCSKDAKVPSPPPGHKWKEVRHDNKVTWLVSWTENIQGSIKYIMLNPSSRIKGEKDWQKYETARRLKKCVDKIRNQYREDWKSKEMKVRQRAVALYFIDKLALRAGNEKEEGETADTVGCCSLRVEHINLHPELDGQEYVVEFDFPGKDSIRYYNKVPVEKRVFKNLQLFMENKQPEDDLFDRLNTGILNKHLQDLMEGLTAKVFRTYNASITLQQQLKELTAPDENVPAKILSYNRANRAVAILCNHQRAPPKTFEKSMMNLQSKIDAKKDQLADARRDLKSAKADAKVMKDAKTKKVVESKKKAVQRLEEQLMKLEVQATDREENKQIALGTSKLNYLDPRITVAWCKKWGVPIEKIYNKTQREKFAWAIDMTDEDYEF
# Protocol: A CCF purification protocol was developed by modifying previous protocols (Shimizu et al., 1996; Ly et al., 2017). Briefly, 500 million senescent cells were collected, resuspended, and incubated in DMEM containing 10 μg/mL cytochalasin B for 30 minutes at 37° C. After wash once with ice-cold PBS, the cell pellet was gently dounce homogenized in ice-cold pre-chilled lysis buffer (10 mM Tris-HCl, 2 mM magnesium acetate, 3 mM CaCl2), 0.32 M sucrose, 0.1 mM EDTA, 1 mM DTT, 0.1% NP-40, 0.15 mM spermine, 0.75 mM spermidine, 10 μg/ml cytochalasin B, pH 8.5, 4° C.) with ten slow strokes of a loose-fitting pestle. Release of nuclei was confirmed by DAPI-staining and microscopy. The homogenate was fixed with 1% formaldehyde for 10 minutes, and mixed well with an equal volume of 1.6M sucrose buffer (10 mM Tris-HCl, 5 mM magnesium acetate, 0.1 mM EDTA, 1 mM DTT, 0.3% BSA, 0.15 mM spermine, 0.75 mM spermidine, pH 8.0, 4° C.). A 10 mL portion of homogenate was layered on the top of sucrose buffer gradient (20 mL and 15 mL containing 1.8M and 1.6M of sucrose, respectively) in a 50 mL tissue culture tube. The tubes were centrifuged at 1200×g for 20 minutes at 4° C. After centrifugation, the upper 3 mL of the gradient was discarded, and the next 15 mL containing CCFs was collected. […] DNA concentration was measured using Nanodrop and 5 μg DNA was used for slot blot analysis.
smiles,measurement,setting,value
"CC[C@@]1(O)C(=O)OCc2c1cc1n(c2=O)Cc2cc3ccccc3nc2-1 [CPT, Camptothecin]",STING dimerization,STING,rescued the suppression of STING dimerization
same,TOP1cc levels in CCF,TOP1cc,Rescue of the decrease in TOP1cc levels
